Test results from paper PMC10447463, “Data-mining unveils structure–property–activity correlation of viral infectivity enhancing self-assembling peptides” (Nature Communications, 2023).
Where two headings read alike, the source gives them in different places.

What was measured:
[1] = β-sheet content by ATR-FT-IR; assay type: physicochemical; details: Fig. S7 panel A; β-sheet content by ATR-FT-IR
Method in brief: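 Using ATR FT-IR (diamond, 2 cm^-1, 64 scans), lyophilized 1 mg/mL PNF samples gave β-sheet content by a published calculation. Fluorescamine signals of 3 kDa filtrates relative to unfiltered samples, normalised to DMSO as 1, yielded CR in percent.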

[2] = test system: HIV-1 infection of TZM-bl cells; test: HIV-1 infectivity enhancement assay, β-galactosidase luminescence; assay type: cell-based; details: for Rel-EFC / Log10 Infection Rel EFC: 1.3 µM peptide; for Rel-EFC: infection relative to EF-C (QCKIKQIINMWQ = 1); for Log10 Infection Rel EFC: log10 of infection relative to EF-C; for Log Infectivity: Log10 infection relative to EF-C, TZM-bl cells, asymmetric std dev errors; for Log10 Infection Rel EF-C: HIV-1 infection of TZM-bl cells; for Abs. Inf.: absolute infection signal, HIV-1 on TZM-bl cells, β-galactosidase luminescence; for Log10 Inf. rel. to EF-C: log10 of HIV-1 infection of TZM-bl cells relative to EF-C (EF-C = 0); for Log10 of Rel to EFC (Feb2021): Log10 of infection relative to EF-C, all peptides of FigS16
[3] = Zeta-potential measurement; assay type: physicochemical
Method in brief: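 Peptides diluted from DMSO stock into PBS pH 7.4 to 1 mg/mL and aged 1 d at RT, then diluted into 1 mM aqueous KCl. Zeta potential derived from electrophoretic mobility via Smoluchowski; triplicates, averaged over two independent experiments.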

[4] = Turbidity, derived count rate of scattered light; assay type: physicochemical; details: for Count Rate / kcps: derived count rate of scattered light at 633 nm, 173°, from zeta-potential measurement, 0.1 mg/mL in 1 mM KCl after 1 d at 1 mg/mL in PBS, turbidity / microscopic aggregation, mean of triplicate
Method in brief: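 Samples: 1 mg/mL in PBS pH 7.4 (from DMSO), 1 d at RT, then diluted in 1 mM KCl immediately before measurement. Triplicates, two independent runs averaged.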

[5] = Fig. S7 panel A (plotted against β-sheet content)
[6] = Fig. S7 panel B (plotted against CR), rounded to two decimals
[7] = Log10 of infection rate relative to EF-C, Figure 3A source data
[8] = infection rate relative to EF-C, log10, data of Figure 2D
[9] = infection rate relative to EF-C, log10, source data of Figure 2C
[10] = zeta-potential of peptide, source data of Figure 2C
[11] = zeta-potential of the peptide assemblies, mean, Figure 3A source data
[12] = Log10 of derived count rate of scattered light (turbidity)
[13] = turbidity, Log10 of derived count rate of scattered light, Figure 3A source data
[14] = turbidity, log10 of derived count rate of scattered light
[15] = zeta potential of peptide assemblies

Row | Substance | b -sheet / % [1] | Rel-EFC [2] | Log10 Infection Rel EFC [2] | Log Infectivity [2, 5] | Log Infectivity [2, 6] | Log10 Infection Rel EF-C [2, 7] | Log10 Infection Rel EF-C [2, 8] | Log10 Infection Rel EF-C [2, 9] | Abs. Inf. [2] | Log10 Inf. rel. to EF-C [2] | Zeta-Pot. [3] | Zeta-Potential / mV [3, 10] | Zeta-Potential / mV [3, 11] | Log10 Count Rate [4, 12] | Count Rate / kcps [4] | Log10 Count Rate [4, 13] | Log10 Count Rate [4, 14] | Zeta-Pot. [3, 15] | Log10 Count Rate ([4]; log10 of derived count rate of scattered light (turbidity)) | Log10 of Rel to EFC (Feb2021) [2]
1 | CKFQC | 43.86% | 0,02 | -1,64 | -1.643 | -1.64 | -1.64 | -1.643 | -1.643 | 496.7 | -1.643 | -17.38 | -5.253 mV | -17.38 mV | 2.115 | 130 kcps | 2.115 | 2.115 |  |  | 
2 | RPRGLLLGNLR | 13.82% | 0,05 | -1,32 | -1.3163 |  | -1.32 | -1.3163 | -1.3163 | 716.7 | -1.3163 | -8.15 | -5.002 mV | -8.15 mV | 2.322 | 210 kcps | 2.322 | 2.322 |  |  | 
3 | EFEFQF | 44.93% | 0 | -2,49 | -2.485 |  | -2.49 | -2.485 | -2.485 |  |  |  | -14.88 mV | -24.5 mV | 2.608 | 405 kcps | 2.608 |  | -24.5 | 2.608 | 
4 | KIKIQIAMWQ | 37.48% | 0,39 | -0,41 | -0.4109 |  | -0.41 | -0.4109 | -0.4109 |  | -0.4109 |  | 13.33 mV | 11.3 mV | 2.733 | 541 kcps | 2.733 | 2.733 | 11.3 |  | -0.41
5 | FKFDKFKFDK | 46.64% | 0,05 | -1,33 | -1.334 |  | -1.33 | -1.334 | -1.334 | 513.3 | -1.334 | -12.7 | -8.027 mV | -12.7 mV | 1.6545 | 45 kcps | 1.6545 | 1.6545 |  |  | 
6 | QCKAKAQA | 34.06% | 0,03 | -1,6 | -1.598 |  | -1.6 | -1.598 | -1.598 | 806.7 | -1.598 | 0.674 | 0.4918 mV | 0.67 mV | 3.12 | 1319 kcps | 3.12 | 3.12 |  |  | 
7 | MDQMDQMDQMDQMDQ | 46.09% | 0 | -2,37 | -2.37 | -2.37 | -2.37 | -2.37 | -2.37 | 63.33 | -2.37 | -14.98 | -10.69 mV | -14.98 mV | 0.9823 | 10 kcps | 0.9823 | 0.9823 |  |  | 
8 | KIKIQINM | 41% | 0,36 | -0,44 | -0.4404 | -0.44 | -0.44 | -0.4404 | -0.4404 |  | -0.4404 |  | 10.17 mV | 8.51 mV | 2.418 | 262 kcps | 2.418 | 2.418 | 8.51 |  | -0.44
9 | HLHLPLL | 49.19% | 0,01 | -2 | -1.9991 | -2 | -2 | -1.9991 | -1.9991 | 133.3 | -1.9991 | -9.053 | -5.247 mV | -9.05 mV | 2.301 | 200 kcps | 2.301 | 2.301 |  |  | 
